Test results from US11166958B2, “4-pyrazin-2-ylmethyl-morpholine derivatives and the use thereof as medicament” (Boehringer Ingelheim International GmbH, priority 2018, dated 2021).

Key:
[1] = biological target: Nav1.6 channel (Homo sapiens (Human), UniProt Q9UQD0); test: Nav1.6 inhibition, IonWorks Quattro electrophysiology; type: cell-based; conditions: for inhibition at 1 µM / inhibition at 5 µM: normalized to vehicle (0%) and maximal inhibition control (100%)
Experimental: IonWorks Quattro electrophysiological platform
The compounds were prepared in DMSO at 300× the final assay concentrations of 1 and 5 μM.
The 300× DMSO stock solutions were transferred into assay plates where 2 μl per well of each 300× stock solution were placed. All assay plates were stored at −80° C. until the day of assay.
On the day of the assay, the appropriate assay plate was thawed at room temperature, centrifuged, and 198 μl of external recording solution was added and mixed thoroughly. This provided a 1:100 dilution. A further 1:3 dilution occurred upon addition to the cells in the IonWorks Quattro electrophysiological platform, giving a 1:300 dilution in total. On each assay plate, at least 8 wells were reserved for vehicle control (0.3% DMSO) and at least 8 wells for each positive control specific to the cell line tested. The positive controls were tested at a maximal blocking and an approximate IC50 concentration. As positive control Lidocaine at concentrations of 30 and 1000 μM was used.
The solutions for recording Nav1.6 currents were as follows:
Amphotericin B was used to obtain electrical access to the cell interior at a final concentration of 200 μg/ml in internal recording solution.
State-dependent inhibition: Sodium channels when held at depolarized potential or long test pulse, the channels open and inactivate and then stay inactivated until the membrane potential is stepped back to hyperpolarized potentials, when the inactivated channels recover from inactivation into closed state.
Cells were held at −120 mV. In order to completely inactivate the sodium channels (pulse 1), the cells were pulsed to +0 mV for 2500 ms and stepped back to −120 mV for 10 ms (to completely recover from inactivation, however channels that had drugs bound to them will not recover from inactivation) before stepping to +0 mV for 20 ms (pulse 2).
Assay Control Results Both the positive and vehicle control data associated with each cell line assayed are shown below as an example. The mean is shown for each positive and negative control as solid symbol with the total number of individual well replicates given next to the solid symbol. In addition, the individual data of each well are shown on the graph as open symbols so that the variation about the mean value can be readily assessed.
Shown below are the assay controls for the Nav1.6 IonWorks Quattro assay.
Tables 3 and 4 show the normalized percentage inhibition of Nav1.6 channel. […] (see also the figure Assay Control Results above).

[2] = biological target: human MDR1 (P-gp) (Homo sapiens (Human), UniProt P08183); test: MDCK assay P-gp: permeability across MDCK-MDR1 monolayers; type: in vitro ADME; conditions: for Papp A→B at 2 h: MDCK-MDR1, apical-to-basal, pH 7.4; for efflux ratio at 2 h: pH 7.4, MDCK-MDR1, Papp (b-a) / Papp (a-b), read-out: efflux ratio PEBA/PEAB
Experimental: The MDCK assays provide information on the potential of a compound to pass the blood brain barrier. Permeability measurements across polarized, confluent MDCK-MDR1 cell monolayers grown on permeable filter supports are used as an in vitro absorption model: apparent permeability coefficients (PE) of the compounds across the MDCK-MDR1 cell monolayers are measured (pH 7.4, 37° C.) in apical-to-basal (AB) and basal-to-apical (BA) transport direction. The AB permeability (PEAB) represents drug absorption from the blood into the brain and the BA permeability (PEBA) drug efflux from the brain back into the blood via both, passive permeability as well as active transport mechanisms mediated by efflux and uptake transporters that are expressed on the MDCK-MDR1 cells, predominantly by the overexpressed human MDR1. Identical or similar permeabilities in both transport directions indicate passive permeation (PEBA/PEAB≤1), vectorial permeability points to additional active transport mechanisms. Higher PEBA than PEAB (PEBA/PEAB>5) indicates the involvement of active efflux mediated by MDR1, which might compromise the goal to achieve sufficient brain exposure. Therefore, this assay provides valuable support for selection of compounds applicable for further in vivo testing. High permeability not limited by efflux at the blood brain barrier is a favourable characteristic for compounds that are to be used for drugs acting primarily in the CNS.
Apparent permeability coefficients (Papp) of the compounds across the MDCK-MDR1 monolayers (MDCKII cells transfected with human MDR1 cDNA expression plasmid) are measured in apical-to-basal (AB) and basal-to-apical (BA) direction.
MDCK-MDR1 cells (6×10^5 cells/cm^2) are seeded on filter inserts (Corning, Transwell, polycarbonate, 0.4 μm pore size) and cultured for 9 to 10 days. Compounds dissolved in DMSO stock solution (1-20 mM) are diluted with HTP-4 aqueous buffer (128.13 mM NaCl, 5.36 mM KCl, 1 mM MgSO4, 1.8 mM CaCl2, 4.17 mM NaHCO3, 1.19 mM Na2HPO4, 0.41 mM NaH2PO4, 15 mM HEPES, 20 mM glucose, pH 7.4) supplemented with 0.25% BSA to prepare the transport solutions (final concentration: 1 or 10 μM, final DMSO<=0.5%). The transport solution is applied to the apical or basolateral donor side for measuring A-B or B-A permeability, respectively. The receiver side contains HTP-4 buffer supplemented with 0.25% BSA. Samples are collected at the start and end of experiment from the donor and at various time intervals for up to 2 hours also from the receiver side for concentration measurement by HPLC-MS/MS (RapidFire High-throughput MS System (Agilent) coupled to QTrap 6500 (AB Sciex) or TSQ Vantage (Thermo Scientific)). Sampled receiver volumes are replaced with fresh receiver solution. Efflux ratio is calculated dividing the Papp (b-a) values by the Papp (a-b) values.

[3] = Metabolic stability in pooled human liver microsomes; type: in vitro ADME; conditions: pH 7.6, 1 μM compound, 1 mg/mL microsomal protein, 37° C., NADPH, read-out: Half-life − t½ human liver microsomes
From the text: Stability in human liver microsomes refers to the susceptibility of compounds to biotransformation in the context of selecting and/or designing drugs with favorable pharmacokinetic properties. The primary site of metabolism for many drugs is the liver. Human liver microsomes contain the cytochrome P450s (CYPs), and thus represent a model system for studying drug metabolism in vitro Enhanced stability in human liver microsomes is associated with several advantages, including increased bioavailability and adequate half-life, which can enable lower and less frequent dosing of patients.
The metabolic degradation of the test compound was assayed at 37° C. with pooled human liver microsomes. The final incubation volume of 60 μl per time point contains TRIS buffer pH 7.6 at room temperature (0.1 M), magnesium chloride (5 mM aqueous solution), microsomal protein (1 mg/mL for human) and the test compound at a final concentration of 1 μM. Following a short preincubation period at 37° C., the reactions were initiated by addition of betanicotinamide adenine dinucleotide phosphate, reduced form (NADPH, 1 mM), and terminated by transferring an aliquot into acetonitril after different time points. After centrifugation (10000 g, 5 min), an aliquot of the supernatant was assayed by HPLC-MS/MS as described above for the MDCK assay P-gp for the amount of parent compound. The half-life was determined by the slope of the semi-logarithmic plot of the concentration-time profile.

Sequence of human MDR1 (P-gp) (P08183 whole entry): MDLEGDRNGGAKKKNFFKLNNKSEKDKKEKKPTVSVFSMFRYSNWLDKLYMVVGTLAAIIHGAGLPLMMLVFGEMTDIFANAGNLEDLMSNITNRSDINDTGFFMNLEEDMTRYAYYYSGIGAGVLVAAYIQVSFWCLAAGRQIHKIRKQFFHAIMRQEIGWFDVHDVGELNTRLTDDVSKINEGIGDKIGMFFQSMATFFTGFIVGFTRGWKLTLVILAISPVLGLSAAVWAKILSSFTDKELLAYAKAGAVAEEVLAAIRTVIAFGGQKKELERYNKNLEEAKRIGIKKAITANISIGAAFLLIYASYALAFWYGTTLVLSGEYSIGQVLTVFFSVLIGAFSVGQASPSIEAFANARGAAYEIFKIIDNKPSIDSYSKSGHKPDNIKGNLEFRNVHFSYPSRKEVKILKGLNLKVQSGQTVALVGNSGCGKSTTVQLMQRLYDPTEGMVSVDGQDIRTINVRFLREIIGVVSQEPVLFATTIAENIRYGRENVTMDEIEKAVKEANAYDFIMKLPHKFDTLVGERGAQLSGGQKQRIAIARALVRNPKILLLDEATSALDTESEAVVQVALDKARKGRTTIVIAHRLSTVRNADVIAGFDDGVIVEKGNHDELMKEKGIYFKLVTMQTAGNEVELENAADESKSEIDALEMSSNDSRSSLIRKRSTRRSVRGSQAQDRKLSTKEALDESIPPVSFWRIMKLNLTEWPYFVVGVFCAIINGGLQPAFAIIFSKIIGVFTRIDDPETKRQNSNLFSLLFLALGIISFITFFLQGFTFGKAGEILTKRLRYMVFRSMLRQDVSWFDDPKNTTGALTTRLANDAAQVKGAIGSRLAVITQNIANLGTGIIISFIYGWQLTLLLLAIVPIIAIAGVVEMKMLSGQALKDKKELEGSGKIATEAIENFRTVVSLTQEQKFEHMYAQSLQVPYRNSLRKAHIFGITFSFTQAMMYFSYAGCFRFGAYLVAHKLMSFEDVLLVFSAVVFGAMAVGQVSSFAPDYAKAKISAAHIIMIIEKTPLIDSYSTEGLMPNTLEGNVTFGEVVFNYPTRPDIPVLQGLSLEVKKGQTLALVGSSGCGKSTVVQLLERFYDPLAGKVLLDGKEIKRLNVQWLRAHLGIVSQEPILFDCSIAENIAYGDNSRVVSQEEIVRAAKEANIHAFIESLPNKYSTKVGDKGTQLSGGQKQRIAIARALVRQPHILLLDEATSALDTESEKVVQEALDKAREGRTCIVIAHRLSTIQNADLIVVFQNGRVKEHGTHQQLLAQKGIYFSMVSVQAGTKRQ
Sequence of Nav1.6 channel (Q9UQD0 whole entry): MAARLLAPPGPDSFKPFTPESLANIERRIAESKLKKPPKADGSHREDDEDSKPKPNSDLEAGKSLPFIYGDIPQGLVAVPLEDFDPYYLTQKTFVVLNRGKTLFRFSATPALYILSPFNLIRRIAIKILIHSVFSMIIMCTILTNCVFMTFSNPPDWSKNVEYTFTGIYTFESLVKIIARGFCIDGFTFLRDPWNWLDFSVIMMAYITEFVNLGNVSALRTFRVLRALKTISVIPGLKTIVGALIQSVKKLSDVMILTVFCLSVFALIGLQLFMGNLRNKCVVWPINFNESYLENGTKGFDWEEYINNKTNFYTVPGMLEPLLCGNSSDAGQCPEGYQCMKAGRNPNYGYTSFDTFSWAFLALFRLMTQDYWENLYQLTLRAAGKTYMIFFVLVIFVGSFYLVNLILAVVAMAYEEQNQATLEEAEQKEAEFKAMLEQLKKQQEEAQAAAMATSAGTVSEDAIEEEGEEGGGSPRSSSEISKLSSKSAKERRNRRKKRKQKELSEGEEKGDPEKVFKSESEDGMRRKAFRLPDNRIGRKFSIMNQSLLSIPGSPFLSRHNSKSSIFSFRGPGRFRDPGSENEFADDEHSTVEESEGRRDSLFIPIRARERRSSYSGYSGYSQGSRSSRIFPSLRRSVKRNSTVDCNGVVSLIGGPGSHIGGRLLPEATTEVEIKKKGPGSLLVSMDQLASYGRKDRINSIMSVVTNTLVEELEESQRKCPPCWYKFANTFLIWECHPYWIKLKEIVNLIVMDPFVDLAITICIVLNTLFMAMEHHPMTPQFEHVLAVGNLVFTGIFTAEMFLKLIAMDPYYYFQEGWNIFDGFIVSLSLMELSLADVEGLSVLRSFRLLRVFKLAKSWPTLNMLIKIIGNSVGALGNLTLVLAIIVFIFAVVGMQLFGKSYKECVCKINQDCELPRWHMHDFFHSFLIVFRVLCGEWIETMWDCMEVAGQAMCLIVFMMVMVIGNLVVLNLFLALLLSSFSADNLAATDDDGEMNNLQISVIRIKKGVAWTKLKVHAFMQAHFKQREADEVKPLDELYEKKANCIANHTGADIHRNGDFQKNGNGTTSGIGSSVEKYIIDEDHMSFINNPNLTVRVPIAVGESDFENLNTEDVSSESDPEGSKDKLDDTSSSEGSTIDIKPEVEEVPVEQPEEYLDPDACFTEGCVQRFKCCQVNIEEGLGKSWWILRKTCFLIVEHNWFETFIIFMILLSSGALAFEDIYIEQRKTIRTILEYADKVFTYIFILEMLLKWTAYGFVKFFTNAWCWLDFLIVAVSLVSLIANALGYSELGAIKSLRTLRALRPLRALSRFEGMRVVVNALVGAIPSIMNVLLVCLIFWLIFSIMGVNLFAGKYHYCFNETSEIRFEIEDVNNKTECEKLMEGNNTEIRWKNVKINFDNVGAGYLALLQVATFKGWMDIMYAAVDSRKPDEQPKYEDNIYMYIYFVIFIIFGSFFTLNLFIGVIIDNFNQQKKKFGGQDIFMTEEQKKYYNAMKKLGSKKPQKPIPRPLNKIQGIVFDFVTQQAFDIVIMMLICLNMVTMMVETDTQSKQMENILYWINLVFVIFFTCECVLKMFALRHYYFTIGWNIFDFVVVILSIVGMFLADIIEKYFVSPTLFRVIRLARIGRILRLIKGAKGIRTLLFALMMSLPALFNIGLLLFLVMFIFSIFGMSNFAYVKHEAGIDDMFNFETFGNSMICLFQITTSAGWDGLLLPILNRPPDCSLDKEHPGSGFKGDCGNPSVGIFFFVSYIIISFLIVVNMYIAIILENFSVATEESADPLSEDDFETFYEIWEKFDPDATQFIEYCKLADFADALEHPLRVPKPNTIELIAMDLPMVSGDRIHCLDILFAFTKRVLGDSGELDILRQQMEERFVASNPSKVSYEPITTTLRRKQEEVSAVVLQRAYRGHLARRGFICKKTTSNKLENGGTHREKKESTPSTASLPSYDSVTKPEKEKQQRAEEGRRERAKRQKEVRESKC

inhibition at 1 µM [1]	inhibition at 5 µM [1]	Papp A→B at 2 h [2]	efflux ratio at 2 h [2]	half-life at 1 µM [3]	inhibition of the Nav 1.6 channel ([1]; at 5 μM)	Structure (SMILES)
-9%	0.5%	59 ×10⁻⁶ cm/s	0.7	> 2.17 h		CNC(=O)[C@@H]1CN(Cc2cnc(Oc3ccc(F)cc3)cn2)CCO1 [Example 1]
-4.4%	-4%	76 ×10⁻⁶ cm/s	0.6	> 2.17 h		CNC(=O)[C@@H]1CN(Cc2cnc(Oc3ccc(C)cc3F)cn2)CCO1 [Example 2]
4.6%	6.8%	75 ×10⁻⁶ cm/s	0.7	> 2.17 h		CNC(=O)[C@@H]1CN(Cc2cnc(Oc3ccc(C)cc3)cn2)CCO1 [Example 3]
3.4%	5%	61 ×10⁻⁶ cm/s	0.7	> 2.17 h		CNC(=O)[C@@H]1CN(Cc2cnc(Oc3ccc(C)cc3C)cn2)CCO1 [Example 4]
-9%	-15%	66 ×10⁻⁶ cm/s	0.7	> 2.17 h	not showing any significant inhibition	CNC(=O)[C@@H]1CN(Cc2cnc(Oc3ccc(Cl)cc3)cn2)CCO1 [Example 7]
3%	1.1%	70 ×10⁻⁶ cm/s	0.6	> 2.17 h		CNC(=O)[C@@H]1CN(Cc2cnc(Oc3ccc(F)cc3C)cn2)CCO1 [Example 8]

Second part, the compound before the results:

Structure (SMILES)	inhibition at 1 µM [1]	inhibition at 5 µM [1]	Papp A→B at 2 h [2]	efflux ratio at 2 h [2]	half-life at 1 µM [3]	inhibition of the Nav 1.6 channel ([1]; at 5 μM)
CNC(=O)[C@@H]1CN(Cc2cnc(Oc3ccc(Cl)cc3F)cn2)CCO1 [Example 5]	-3.9%	3.7%	59 ×10⁻⁶ cm/s	0.8	> 2.17 h	
CNC(=O)[C@@H]1CN(Cc2cnc(Oc3ccc(F)cc3F)cn2)CCO1 [Example 6]	5.6%	0.2%	71 ×10⁻⁶ cm/s	0.8	> 2.17 h	
CNC(=O)[C@@H]1CN(Cc2cnc(Oc3ccccc3F)cn2)CCO1 [Example 9]	0%	4.6%	62 ×10⁻⁶ cm/s	0.9	> 2.17 h	
CNC(=O)[C@@H]1CN(Cc2cnc(Oc3ccccc3Cl)cn2)CCO1 [Example 18]	-5%	-10%	61 ×10⁻⁶ cm/s	0.8	> 2.17 h	
CCNC(=O)[C@@H]1CN(Cc2cnc(Oc3ccc(F)cc3F)cn2)CCO1 [Example 30]	-13.4%	-9.4%	81 ×10⁻⁶ cm/s	0.4	> 2.17 h	
CCNC(=O)[C@@H]1CN(Cc2cnc(Oc3ccc(C)cc3F)cn2)CCO1 [Example 31]	-5.8%	-7%	66 ×10⁻⁶ cm/s	0.6	> 2.17 h	
CCNC(=O)[C@@H]1CN(Cc2cnc(Oc3ccccc3Cl)cn2)CCO1 [Example 33]	-10.5%	-6.6%	59 ×10⁻⁶ cm/s	0.7	> 2.17 h	
